Here are results for 34 compounds from US20230295119A1, “SUBSTITUTED PYRIDINES FOR THE TREATMENT OF INFLAMMATORY DISEASES” (GOSSAMER BIO SERVICES, INC., priority 2020, published 2023).

In assay [1] the target is human JAK1 (Homo sapiens (Human), UniProt P23458). Briefly: JAK1 TR-FRET kinase assay. The format is biochemical. The settings on record: TR-FRET, JAK1 2.5 nM.
In assay [2] the target is TYK2 JH2 domain (Homo sapiens (Human), UniProt P29597). Briefly: TYK2 JH2 NanoBRET assay. The format is binding. Particulars: Table 20, read-out: TYK2 IC50. Put shortly: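 HEK293T cells transiently expressing NanoLuc-TYK2 JH2 fusion, incubated 2 h with compound and NanoBRET K10 tracer (0.5 µM final). Target engagement read as acceptor/donor BRET ratio after Nano-Glo substrate plus extracellular NanoLuc inhibitor.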
TYK2 JH2 domain, sequence (P29597 589-875): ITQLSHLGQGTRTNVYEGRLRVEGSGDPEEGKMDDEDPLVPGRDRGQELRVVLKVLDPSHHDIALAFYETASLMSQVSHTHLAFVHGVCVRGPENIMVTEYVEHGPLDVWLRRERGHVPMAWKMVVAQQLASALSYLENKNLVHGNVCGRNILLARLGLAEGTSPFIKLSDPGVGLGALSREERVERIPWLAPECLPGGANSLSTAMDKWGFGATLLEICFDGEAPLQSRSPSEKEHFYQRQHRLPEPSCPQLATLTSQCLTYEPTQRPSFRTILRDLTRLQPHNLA

Assay [3] deals with human JAK3 (Homo sapiens (Human), UniProt P52333). Briefly: JAK3 TR-FRET kinase assay. The format is biochemical. The settings on record: JAK3 0.0125 nM.
human JAK3, sequence (P52333 whole entry): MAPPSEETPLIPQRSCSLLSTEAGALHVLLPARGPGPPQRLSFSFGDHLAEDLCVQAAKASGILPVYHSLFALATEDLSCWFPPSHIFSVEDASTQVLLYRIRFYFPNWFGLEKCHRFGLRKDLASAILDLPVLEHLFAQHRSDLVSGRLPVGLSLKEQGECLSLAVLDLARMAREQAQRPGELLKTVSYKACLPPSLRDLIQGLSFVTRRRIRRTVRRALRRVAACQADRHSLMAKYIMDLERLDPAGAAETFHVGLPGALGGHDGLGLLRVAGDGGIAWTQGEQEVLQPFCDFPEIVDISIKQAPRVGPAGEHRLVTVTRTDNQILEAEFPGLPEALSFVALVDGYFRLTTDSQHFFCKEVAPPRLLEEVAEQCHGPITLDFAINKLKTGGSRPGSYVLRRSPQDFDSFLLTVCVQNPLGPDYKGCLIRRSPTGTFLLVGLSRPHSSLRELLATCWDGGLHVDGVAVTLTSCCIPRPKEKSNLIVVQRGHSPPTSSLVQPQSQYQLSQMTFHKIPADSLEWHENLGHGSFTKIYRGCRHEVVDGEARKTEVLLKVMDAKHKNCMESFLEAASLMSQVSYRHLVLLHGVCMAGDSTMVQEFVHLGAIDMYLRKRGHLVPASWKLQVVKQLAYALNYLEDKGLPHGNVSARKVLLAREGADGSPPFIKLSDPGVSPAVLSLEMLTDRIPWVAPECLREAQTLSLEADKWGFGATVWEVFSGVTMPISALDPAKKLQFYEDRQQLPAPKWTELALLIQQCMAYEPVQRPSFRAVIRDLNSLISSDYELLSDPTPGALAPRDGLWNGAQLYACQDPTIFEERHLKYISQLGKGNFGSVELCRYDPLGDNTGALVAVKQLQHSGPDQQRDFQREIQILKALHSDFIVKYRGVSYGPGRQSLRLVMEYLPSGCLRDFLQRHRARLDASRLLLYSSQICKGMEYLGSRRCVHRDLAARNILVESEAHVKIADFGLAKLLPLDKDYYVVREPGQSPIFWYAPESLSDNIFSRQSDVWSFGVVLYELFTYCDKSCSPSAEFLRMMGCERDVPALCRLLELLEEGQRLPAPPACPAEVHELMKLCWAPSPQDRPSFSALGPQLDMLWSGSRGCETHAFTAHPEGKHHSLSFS
Assay [4] addresses human JAK2 (Homo sapiens (Human), UniProt O60674). Briefly: JAK2 TR-FRET kinase assay. The format is biochemical. The settings on record: JAK2 0.025 nM.

SMILES strings stand for the structures.

human JAK2, sequence (O60674 whole entry): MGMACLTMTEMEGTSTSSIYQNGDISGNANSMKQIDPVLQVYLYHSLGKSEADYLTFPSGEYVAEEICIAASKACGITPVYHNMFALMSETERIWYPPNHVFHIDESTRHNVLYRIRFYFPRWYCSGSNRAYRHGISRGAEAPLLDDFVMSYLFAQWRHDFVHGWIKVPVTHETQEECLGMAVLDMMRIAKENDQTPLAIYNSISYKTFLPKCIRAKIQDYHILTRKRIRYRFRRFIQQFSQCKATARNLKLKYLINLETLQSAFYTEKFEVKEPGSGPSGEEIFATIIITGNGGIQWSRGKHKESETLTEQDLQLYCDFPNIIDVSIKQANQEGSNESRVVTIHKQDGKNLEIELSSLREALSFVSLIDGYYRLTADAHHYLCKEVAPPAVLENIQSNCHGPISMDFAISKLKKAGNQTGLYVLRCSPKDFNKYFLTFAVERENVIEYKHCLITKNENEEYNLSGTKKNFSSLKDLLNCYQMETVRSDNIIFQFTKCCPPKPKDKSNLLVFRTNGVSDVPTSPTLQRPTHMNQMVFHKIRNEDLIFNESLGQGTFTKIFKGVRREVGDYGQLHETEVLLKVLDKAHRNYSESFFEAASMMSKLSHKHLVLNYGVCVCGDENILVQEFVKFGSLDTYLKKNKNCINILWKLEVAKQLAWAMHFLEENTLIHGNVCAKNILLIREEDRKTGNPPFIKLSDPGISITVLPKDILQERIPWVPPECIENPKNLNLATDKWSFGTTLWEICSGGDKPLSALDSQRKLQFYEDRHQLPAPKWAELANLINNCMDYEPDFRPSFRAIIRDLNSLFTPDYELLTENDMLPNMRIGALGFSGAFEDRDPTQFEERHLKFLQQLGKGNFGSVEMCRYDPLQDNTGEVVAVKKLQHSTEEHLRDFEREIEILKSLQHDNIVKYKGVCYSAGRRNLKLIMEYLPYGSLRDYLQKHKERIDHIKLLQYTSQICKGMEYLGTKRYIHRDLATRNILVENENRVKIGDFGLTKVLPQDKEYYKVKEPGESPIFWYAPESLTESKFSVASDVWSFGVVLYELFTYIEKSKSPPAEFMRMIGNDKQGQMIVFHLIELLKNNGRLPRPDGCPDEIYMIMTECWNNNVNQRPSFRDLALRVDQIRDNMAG
human JAK1, sequence (P23458 whole entry, the tested form may be a part): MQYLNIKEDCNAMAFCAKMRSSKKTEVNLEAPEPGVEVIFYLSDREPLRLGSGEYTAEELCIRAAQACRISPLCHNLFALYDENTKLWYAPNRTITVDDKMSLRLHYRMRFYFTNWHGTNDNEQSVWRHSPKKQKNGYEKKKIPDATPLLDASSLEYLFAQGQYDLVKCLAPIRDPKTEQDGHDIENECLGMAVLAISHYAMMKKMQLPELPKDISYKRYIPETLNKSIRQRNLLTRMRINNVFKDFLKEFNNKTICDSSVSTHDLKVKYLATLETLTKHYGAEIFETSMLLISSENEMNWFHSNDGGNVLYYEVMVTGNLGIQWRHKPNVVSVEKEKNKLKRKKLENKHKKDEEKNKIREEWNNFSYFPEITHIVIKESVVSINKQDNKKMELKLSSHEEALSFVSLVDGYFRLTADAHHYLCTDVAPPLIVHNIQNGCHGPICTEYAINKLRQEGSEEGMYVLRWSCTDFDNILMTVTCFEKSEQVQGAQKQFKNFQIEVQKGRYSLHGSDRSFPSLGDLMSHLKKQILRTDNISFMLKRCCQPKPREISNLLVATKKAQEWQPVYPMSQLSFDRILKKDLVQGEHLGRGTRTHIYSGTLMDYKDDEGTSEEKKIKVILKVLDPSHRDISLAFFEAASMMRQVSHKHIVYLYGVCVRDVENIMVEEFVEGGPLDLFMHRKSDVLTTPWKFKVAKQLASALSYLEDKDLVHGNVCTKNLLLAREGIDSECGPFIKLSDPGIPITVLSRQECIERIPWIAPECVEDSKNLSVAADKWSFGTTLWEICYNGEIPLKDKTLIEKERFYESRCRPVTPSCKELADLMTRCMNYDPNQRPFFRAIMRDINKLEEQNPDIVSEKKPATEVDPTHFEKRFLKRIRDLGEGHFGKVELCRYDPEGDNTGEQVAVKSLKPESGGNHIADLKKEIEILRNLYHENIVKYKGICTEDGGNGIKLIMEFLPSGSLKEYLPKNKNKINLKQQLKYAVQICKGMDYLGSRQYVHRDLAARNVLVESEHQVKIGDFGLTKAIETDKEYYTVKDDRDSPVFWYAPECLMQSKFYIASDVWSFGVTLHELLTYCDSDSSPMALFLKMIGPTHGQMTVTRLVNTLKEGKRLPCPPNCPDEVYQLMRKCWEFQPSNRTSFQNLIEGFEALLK

`CCC(=O)c1cnc(Nc2ccc(OCC(C)(C)O)cn2)cc1Nc1cccc(-c2ncn(C)n2)c1OC` [Compound 18E]: the IC50 in assay [1] was ≥ 500 nM; in assay [2], < 5 nM; in assay [3], 50 to 500 nM; in assay [4] it was 50 to 500 nM.

For the compound `COc1c(Nc2cc(Nc3ccc(OCCCO)cn3)ncc2C(=O)C2CC2)cccc1-c1ncn(C)n1` [Compound 18C], the IC50 in assay [1] was ≥ 500 nM; in assay [2], < 5 nM; in assay [3] it was ≥ 500 nM; in assay [4] it was ≥ 500 nM.

For the compound `CCC(=O)c1cnc(Nc2ccc(CN3CCS(=O)(=O)CC3)cn2)cc1Nc1cccc(-c2ncn(C)n2)c1OC` [Compound 9VV], the IC50 in assay [1] was ≥ 500 nM; in assay [2] it was < 5 nM; in assay [3], 50 to 500 nM; in assay [4], 50 to 500 nM.

As for `CCC(=O)c1cnc(Nc2ccc(S(=O)(=O)CC)cn2)cc1Nc1nccc(-c2ncn(C)n2)c1OC` [Compound 13J], the concentration for half-maximal inhibition (IC50) in assay [1] was ≥ 500 nM; in assay [2], < 5 nM; in assay [3], ≥ 500 nM; in assay [4], ≥ 500 nM.

Regarding `CCC(=O)c1cnc(Nc2cnc(OCCN3CC(C#N)C3)cn2)cc1Nc1cccc(-c2ncn(C)n2)c1OC` [Compound 18RR], the IC50 in assay [1] is ≥ 500 nM; in assay [2] it was 5 to 50 nM; in assay [3], ≥ 500 nM; in assay [4], ≥ 500 nM.

Take `CCC(=O)c1cnc(Nc2cnc(O[C@H]3CN(C)C[C@@H]3F)cn2)cc1Nc1cccc(-c2ncn(C)n2)c1OC` [Compound 18AAA]: the concentration for half-maximal inhibition (IC50) is ≥ 500 nM in assay [1], 5 to 50 nM in assay [2], ≥ 500 nM in assay [3] and ≥ 500 nM in assay [4].

With `CCC(=O)c1cnc(Nc2ccc(CN(C)C3CC(F)(F)C3)cn2)cc1Nc1cccc(-c2ncn(C)n2)c1OC` [Compound 9EEE], the IC50 is ≥ 500 nM in assay [1], < 5 nM in assay [2], ≥ 500 nM in assay [3] and ≥ 500 nM in assay [4].

For `CCC(=O)c1cnc(Nc2cnc(OCCN3CC(F)(F)C3)cn2)cc1Nc1cccc(-c2ncn(C)n2)c1OC` [Compound 18QQ], the IC50 in assay [1] is ≥ 500 nM; in assay [2], 5 to 50 nM; in assay [3], ≥ 500 nM; in assay [4], ≥ 500 nM.

As to `CCC(=O)c1cnc(Nc2ccc(CN3C4COCC3C4)cn2)cc1Nc1cccc(-c2ncn(C)n2)c1OC` [Compound 9XX], the IC50 in assay [1] was ≥ 500 nM; in assay [2], < 5 nM; in assay [3], 50 to 500 nM; in assay [4], 50 to 500 nM.

Regarding `CCC(=O)c1cnc(NC(=O)C2CC2c2ccccn2)cc1Nc1cccc(-c2ncn(C)n2)c1OC` (stereo not shown) [Compound 22B], the IC50 in assay [1] is ≥ 500 nM; in assay [2] it was 50 to 500 nM; in assay [3], ≥ 500 nM; in assay [4], ≥ 500 nM.

Turning to `CCC(=O)c1cnc(Nc2cc(CCN(C)C)ncn2)cc1Nc1cccc(-c2ncn(C)n2)c1OC` [Compound 11F], the half-inhibitory concentration (IC50) in assay [1] was ≥ 500 nM; in assay [2], < 5 nM; in assay [3] it was ≥ 500 nM; in assay [4] it was ≥ 500 nM.

In the case of `CCC(=O)c1cnc(Nc2cc(C(=O)N(C)C)ncn2)cc1Nc1cccc(-c2ncn(C)n2)c1OC` [Compound 8O], the half-inhibitory concentration (IC50) is ≥ 500 nM in assay [1], < 5 nM in assay [2], ≥ 500 nM in assay [3] and ≥ 500 nM in assay [4].

`CCC(=O)c1cnc(Nc2ccc(P(C)(C)=O)cn2)cc1Nc1cccc(-c2ncn(C)n2)c1OC` [Compound 15DD]: the IC50 is ≥ 500 nM in assay [1], 5 to 50 nM in assay [2], ≥ 500 nM in assay [3] and ≥ 500 nM in assay [4].

As to `CCC(=O)c1cnc(Nc2ccc(-n3ccnc(C)c3=O)cn2)cc1Nc1cccc(-c2ncn(C)n2)c1OC` [Compound 15X], the IC50 in assay [1] was ≥ 500 nM; in assay [2], 5 to 50 nM; in assay [3], 50 to 500 nM; in assay [4], 50 to 500 nM.

For `CCC(=O)c1cnc(NC(=O)[C@@H]2C[C@H]2CC#N)cc1Nc1cccc(-c2ncn(C)n2)c1OC` [Compound 22L], the IC50 in assay [1], in assay [2], in assay [3] and in assay [4] was ≥ 500 nM throughout.

Consider `COc1c(Nc2cc(Nc3ccc(-n4ccnc4)cn3)ncc2C(=O)C2CC2)cccc1-c1ncn(C)n1` [Compound 15Q], for which the 50% inhibitory concentration (IC50) in assay [1] was ≥ 500 nM; in assay [2] it was < 5 nM; in assay [3], ≥ 500 nM; in assay [4], ≥ 500 nM.

Turning to `CCC(=O)c1cnc(Nc2ccn(C3CC(F)(F)C3)n2)cc1Nc1cccc(-c2ncn(C)n2)c1OC` [Compound 21GG], the half-maximal inhibitory concentration (IC50) in assay [1] was ≥ 500 nM; in assay [2], 5 to 50 nM; in assay [3], ≥ 500 nM; in assay [4], ≥ 500 nM.

Turning to `COc1c(-c2ncn(C)n2)ccnc1Nc1cc(Nc2ccc(-c3cn(C)cn3)cn2)ncc1C(=O)C1CC1` [Compound 15L], the IC50 was ≥ 500 nM in assay [1], 5 to 50 nM in assay [2], ≥ 500 nM in assay [3] and ≥ 500 nM in assay [4].

In the case of `CCC(=O)c1cnc(Nc2ccc(O[C@H]3CCN(C)C3)nn2)cc1Nc1cccc(-c2ncn(C)n2)c1OC` [Compound 18GG], the IC50 in assay [1] was ≥ 500 nM; in assay [2], 5 to 50 nM; in assay [3], ≥ 500 nM; in assay [4], ≥ 500 nM.

On to `CCC(=O)c1cnc(NC(=O)CC2CN(C)C2)cc1Nc1cccc(-c2ncn(C)n2)c1OC` [Compound 23G], for which the IC50 in assay [1], in assay [2], in assay [3] and in assay [4] was ≥ 500 nM each time.

With `CCC(=O)c1cnc(Nc2ccc(S(C)(=O)=O)cn2)cc1Nc1nccc(-c2ncn(C)n2)c1OC` [Compound 13I], the IC50 was ≥ 500 nM in assay [1], < 5 nM in assay [2], ≥ 500 nM in assay [3] and ≥ 500 nM in assay [4].

On to `CCC(=O)c1cnc(Nc2ccc(-n3cnccc3=O)cn2)cc1Nc1cccc(-c2ncn(C)n2)c1OC` [Compound 15Y], for which the IC50 in assay [1] was ≥ 500 nM; in assay [2], < 5 nM; in assay [3], 50 to 500 nM; in assay [4], 50 to 500 nM.

Turning to `CCC(=O)c1cnc(Nc2ccc(CN3CC4(CCO4)C3)cn2)cc1Nc1cccc(-c2ncn(C)n2)c1OC` [Compound 9ZZ], the concentration for half-maximal inhibition (IC50) in assay [1] was ≥ 500 nM; in assay [2], < 5 nM; in assay [3], ≥ 500 nM; in assay [4], ≥ 500 nM.

On to `CCC(=O)c1cnc(Nc2cc(CN(C)C)ncn2)cc1Nc1cccc(-c2ncn(C)n2)c1OC` [Compound 17A, 1-(6-((6-((dimethylamino)methyl)pyrimidin-4-yl)amino)-4-((2-methoxy-3-(1-methyl-1H-1,2,4-triazol-3-yl)phenyl)amino)pyridin-3-yl)propan-1-one], for which the IC50 in assay [1] is ≥ 500 nM; in assay [2], < 5 nM; in assay [3] it was ≥ 500 nM; in assay [4], ≥ 500 nM.

Take `CCC(=O)c1cnc(Nc2cccc(CN3CCOCC3)n2)cc1Nc1cccc(-c2ncn(C)n2)c1OC` [Compound 9HHHH]: the concentration for half-maximal inhibition (IC50) in assay [1] was ≥ 500 nM; in assay [2], < 5 nM; in assay [3], ≥ 500 nM; in assay [4] it was ≥ 500 nM.

For `CCC(=O)c1cnc(Nc2ccc(O[C@H]3COC[C@@H]3O)cn2)cc1Nc1cccc(-c2ncn(C)n2)c1OC` [Compound 18R], the IC50 in assay [1] was ≥ 500 nM; in assay [2], < 5 nM; in assay [3], 50 to 500 nM; in assay [4] it was ≥ 500 nM.

Take `CCC(=O)c1cnc(Nc2ccc(S(C)(=N)=O)cn2)cc1Nc1cccc(-c2ncn(C)n2)c1OC` (stereo not shown) [Compound 14A, imino(6-((4-((2-methoxy-3-(1-methyl-1H-1,2,4-triazol-3-yl)phenyl)amino)-5-propionylpyridin-2-yl)amino)pyridin-3-yl)(methyl)-16-sulfanone]: the IC50 in assay [1] is ≥ 500 nM; in assay [2], < 5 nM; in assay [3] it was ≥ 500 nM; in assay [4] it was ≥ 500 nM.

Turning to `CCC(=O)c1cnc(Nc2cc(CN3CCOCC3)ccn2)cc1Nc1cccc(-c2ncn(C)n2)c1OC` [Compound 9KKKK], the IC50 in assay [1] was ≥ 500 nM; in assay [2], < 5 nM; in assay [3], 50 to 500 nM; in assay [4], ≥ 500 nM.

Turning to `CCC(=O)c1cnc(Nc2ccc(-n3nc(C)ccc3=O)cn2)cc1Nc1cccc(-c2ncn(C)n2)c1OC` [Compound 15Z], the 50% inhibitory concentration (IC50) is ≥ 500 nM in assay [1], 5 to 50 nM in assay [2], ≥ 500 nM in assay [3] and ≥ 500 nM in assay [4].

As to `CCC(=O)c1cnc(Nc2cc(C)n(CCOC)n2)cc1Nc1cccc(-c2ncn(C)n2)c1OC` [Compound 21Z], the 50% inhibitory concentration (IC50) in assay [1] is ≥ 500 nM; in assay [2] it was 5 to 50 nM; in assay [3], 50 to 500 nM; in assay [4], ≥ 500 nM.

Regarding `CCC(=O)c1cnc(NC(=O)[C@@H]2C[C@H]2C(=O)O)cc1Nc1cccc(-c2ncn(C)n2)c1OC` [Compound 22C], the IC50 in assay [1], in assay [2], in assay [3] and in assay [4] was ≥ 500 nM throughout.

On to `CCC(=O)c1cnc(Nc2cnc(OCCN)cn2)cc1Nc1cccc(-c2ncn(C)n2)c1OC` [Compound 18MM], for which the concentration for half-maximal inhibition (IC50) in assay [1] was ≥ 500 nM; in assay [2] it was < 5 nM; in assay [3], ≥ 500 nM; in assay [4], ≥ 500 nM.

As for `CCC(=O)c1cnc(Nc2ccc(OCCCN3CCCC3)nn2)cc1Nc1cccc(-c2ncn(C)n2)c1OC` [Compound 18DD], the IC50 in assay [1] is ≥ 500 nM; in assay [2], < 5 nM; in assay [3], ≥ 500 nM; in assay [4], ≥ 500 nM.

With `CCC(=O)c1cnc(Nc2cnc(OCCCO)cn2)cc1Nc1cccc(-c2ncn(C)n2)c1OC` [Compound 18Q], the IC50 in assay [1] was ≥ 500 nM; in assay [2] it was 5 to 50 nM; in assay [3], ≥ 500 nM; in assay [4] it was ≥ 500 nM.
